Assay results: patent publication US10450322B2, “Low molecular weight derivatives of carboxamide halogenated porphyrins, namely chlorins and bacteriochlorins, and their applications thereof” (LUZITIN, S.A., priority 2015, dated 2019)

Legend:
[1] = Skin permeation: depth by confocal fluorescence microscopy; assay type: in vitro ADME, pig; settings: in 90 minutes, topical formulation
Method: (§1) Skin permeation was evaluated using a topical formulation containing benzyl alcohol (23%), Kolliphor EL (17%), Transcutol (50%) and water (10%). The photosensitizer added to this formulation corresponded to 1.85% of the mass before its addition, and the gelling agent (Aerosil 200) added corresponded to 5% of the mass before its addition. The photosensitizer was first dissolved in Transcutol and exposed to 3 min of vortex and 5 min of ultrasounds. A mixture of benzyl alcohol and Kolliphor EL was then added. Immediately after, it was mixed in an IKA MIXER at 200 rpm for 5 min and water was added drop-by-drop for 10 min. Finally, the gelling agent, Aerosil 200, was mixed in and the microemulsion gel was obtained. Skin permeation studies were performed in pig skin using samples collected from 5 months old pigs. The hair was removed as well as the underlying fatty layer, before the permeation studies.
This example describes the permeation of carboxamide bacteriochlorin with formula IX in pig skin. The topical formulation and the animal model were described in the Materials and Methods section. The permeation was assessed both in terms of the amount of photosensitizer in the skin after designated times of contact between the topical formulation and the skin (incubation time) and in terms of the depth of the permeation in the skin. […]

[2] = Fluorescence emission, quantum yield and lifetime; assay type: physicochemical; settings: in ethanol
Method: The fluorescence emission spectra were recorded in the homemade setup composed of a Horiba-Jobin Fluoromax 4, used to excite the samples, connected to a sample holder through an optical fiber. In the sample holder, perpendicular to excitation fiber, an optical fiber is connected to drive the emission light to the spectrophotometer detector Avantes model SensLine, provided with AvaSoft 7.7.2. The excitation slit was set at 2 mm and the integration time was 3 s, with average number of 3. The spectra were collected from 200 nm up to 1100 nm using standard cuvettes of 1 cm of optical path. Fluorescence quantum yields (ΦF) were obtained comparing the integrated fluorescence of the samples with that of a reference fluorimetric compound with known ΦF.
The fluorescence lifetime was determined in homemade equipment composed of a LED that produces a light pulse for exciting the sample, a sample holder, detector and optics. […]
This is indicative of negligible aggregation between the molecules, which exist mostly as monomers at these concentrations in the solvents studied. […] The same table also presents triplet lifetimes (τT) in air and N2 saturated solutions, fluorescence lifetime (τS), the quantum yields of fluorescence (ΦF), triplet state formation (ΦT), and singlet oxygen generation (ΦΔ) in ethanol, and photodegradation quantum yield (Φpd) in methanol:PBS (3:2). […]

[3] = Photobleaching (photodecomposition quantum yield); assay type: physicochemical; settings: methanol:PBS (3:2)
[4] = Skin permeation: amount of photosensitizer in pig skin after topical formulation; assay type: in vitro ADME; settings: for Concentration average: 6 experiments
Method: as §1
This example describes the permeation of carboxamide bacteriochlorin with formula IX in pig skin. The topical formulation and the animal model were described in the Materials and Methods section. The permeation was assessed both in terms of the amount of photosensitizer in the skin after designated times of contact between the topical formulation and the skin (incubation time) and in terms of the depth of the permeation in the skin.
The assessment of the amount of carboxamide bacteriochlorin with formula IX in the skin after various incubation times involved the following steps: (i) application of 0.30 ml of formulation in 1 cm^2 areas of minipig skin to make 6 independent measurements for the incubation times of 30, 60 and 120 minutes; (ii) cleaning of the surface of the skin at the end of the incubation times; (iii) cutting the skin in small pieces and maceration in 2 ml of dichloromethane with the aid of dispersing machine; (iv) extraction with 10 ml of dichloromethane in a falcon tube for six hours; (v) dilution by a factor of 5 with ethanol. The volume of 200 μl of the test solution was added in triplicate to 96 well plate and fluorescence intensity was detected using a Synergy HT microplate reader form Biotek (California, USA), with an excitation filter of 508/20 nm and emission filter of 760/35 nm, against a calibration curve. The signal of a blank obtained with the same cleaning method was subtracted from the signal of the sample and the concentration of the photosensitizer in each sample was obtained with the calibration curve. A summary of the results can be seen in Table 2.

SMILES: CNC(=O)c1c2nc(c(-c3c(F)cccc3F)c3ccc(cc4nc(c(-c5c(F)cccc5F)c5ccc1[nH]5)CC4)[nH]3)CC2 [formula IX, 5-methylcarboxamide-10,20-bis-(2,6-difluorophenyl)bacteriochlorin]
- depth of penetration in the skin [1]: 40 μm
- ΦF fluorescence quantum yield [2]: 0.20
- τS fluorescence lifetime [2]: 3.2 ns
- Φpd photodecomposition quantum yield [3]: 1.5 10^−4
- flux of the photosensitizer to the skin Jmax ([4]; attained in 1.5 hours, topical formulation): 4×10^−8 mol/(cm^2 h)
- Mass in the skin ([4]; incubation time 30 min): 5.41 ± 1.33 μg/cm^2
- Concentration average ([4]; incubation time 30 min): 0.909 µM
- Mass in the skin ([4]; incubation time 60 min): 19.9 ± 5.12 μg/cm^2
- Concentration average ([4]; incubation time 60 min): 3.34 µM
- Mass in the skin ([4]; incubation time 120 min): 37.2 ± 7.45 μg/cm^2
- Concentration average ([4]; incubation time 120 min): 6.26 µM
